According to US5225528A, “Cyclic hexapeptide oxytocin antagonists” (priority 1990, dated 1993):
Read-outs that look alike come from different tables or passages of the source. Numbered stars: 1 amine (or outer) side, 2 acyl side, 3 side chain; on linkers, the order of the positions; unused ones are H or OH. Square brackets hold non-standard residues; d marks the D form. Peptide text beside a SMILES is read from it. * marks the point of attachment. dPip(4-aza,4-Cbz) = O=C(O)[C@H]1CN(C(=O)OCc2ccccc2)CCN1; X2 = O=C(OCc1ccccc1)N1CCN([*:1])[C@H](C(=O)[*:2])C1; dPhe(4-NO2) = N[C@H](Cc1ccc([N+](=O)[O-])cc1)C(=O)O; dPhe(4-NH2) = Nc1ccc(C[C@@H](N)C(=O)O)cc1; Ethyl(2-morpholino) = C1CN(CC*)CCO1; dNMeY = CN[C@H](Cc1ccc(O)cc1)C(=O)O; Pip(4-aza) = O=C(O)[C@@H]1CNCCN1; dNMeF = CN[C@H](Cc1ccccc1)C(=O)O; dPip(4-aza) = O=C(O)[C@H]1CNCCN1; Chg = N[C@H](C(=O)O)C1CCCCC1; dOrn = NCCC[C@@H](N)C(=O)O; Pip = O=C(O)[C@@H]1CCCCN1; dPip = O=C(O)[C@H]1CCCCN1; Orn = NCCC[C@H](N)C(=O)O; Me2Gly = CN(C)CC(=O)*

Assays:
[1] = target: T1, uterine OT receptors (Rattus norvegicus, UniProt P70536); test: [^3 H]OT binding to uterine OT receptors, crude membrane preparation of uteri from DES-treated rats; conditions: for inhibition at 0.1 µM: 1 h, @ 100 (nM), read-out: [^3 H]OT: percent inhibition of radioligand at the given concentration; for IC50: rat uterus membranes, 1 nM [^3 H]OT, read-out: Receptor Binding Results IC50 (nM) [^3 H]OT
T1 construct: from tissue; host or cells: uterus of DES-treated rats, crude membranes
T1 sequence (P70536 1-388): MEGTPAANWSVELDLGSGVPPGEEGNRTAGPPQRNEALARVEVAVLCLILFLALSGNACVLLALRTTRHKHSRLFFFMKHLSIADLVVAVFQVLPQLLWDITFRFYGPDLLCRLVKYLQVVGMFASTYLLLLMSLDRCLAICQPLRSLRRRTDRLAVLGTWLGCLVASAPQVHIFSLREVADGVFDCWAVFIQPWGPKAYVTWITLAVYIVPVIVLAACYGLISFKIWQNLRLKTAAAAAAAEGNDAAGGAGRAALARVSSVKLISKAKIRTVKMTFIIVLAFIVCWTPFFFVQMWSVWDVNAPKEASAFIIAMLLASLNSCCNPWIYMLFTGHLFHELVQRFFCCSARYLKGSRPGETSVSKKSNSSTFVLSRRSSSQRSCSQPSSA
Method: Competition studies were conducted at equilibrium (60 minutes; 22° C.) using 1 nM [^3 H]OT in the following assay buffer: 50 mM Tris-HCl, 5 mM MgCl2, and 0.1% BSA, pH 7.4.

[2] = target: T2, AVP-V2 sites (Rattus norvegicus, UniProt Q00788); test: [^3 H]AVP binding to crude membrane preparation of male rat kidney medulla (AVP-V2 sites)
T2 construct: male rat liver (AVP-V1 sites) or kidney medulla (AVP-V2 sites); from tissue; host or cells: male rat kidney medulla, crude membranes
Method: (§1) Nonspecific binding (5-10% of the total binding) was determined using 10 μM unlabeled AVP, and the binding reaction was terminated by filtration as described above for the [^3 H]OT binding assay.

[3] = target: T3, AVP-V1 sites (Rattus norvegicus, UniProt P30560); test: [^3 H]AVP binding to crude membrane preparation of male rat liver (AVP-V1 sites)
T3 construct: crude membrane preparation of male rat liver (AVP-V1 sites); from tissue; host or cells: male rat liver, crude membranes
Method: as §1

[4] = Receptor Binding Results IC50 (nM) [^3 H]-AVP-V2
[5] = Receptor Binding Results IC50 (nM) [^3 H]-AVP-V1
[6] = rat kidney medulla membranes, 2 nM [^3 H]AVP, read-out: Receptor Binding Results IC50 (nM) [^3 H]-AVP-V2
[7] = read-out: Receptor Binding Results IC50 (nM) [^3 H]-AVP-V2
[8] = read-out: Receptor Binding Results IC50 (nM) [^3 H]-AVP-V1

T3 sequence (P30560 whole entry): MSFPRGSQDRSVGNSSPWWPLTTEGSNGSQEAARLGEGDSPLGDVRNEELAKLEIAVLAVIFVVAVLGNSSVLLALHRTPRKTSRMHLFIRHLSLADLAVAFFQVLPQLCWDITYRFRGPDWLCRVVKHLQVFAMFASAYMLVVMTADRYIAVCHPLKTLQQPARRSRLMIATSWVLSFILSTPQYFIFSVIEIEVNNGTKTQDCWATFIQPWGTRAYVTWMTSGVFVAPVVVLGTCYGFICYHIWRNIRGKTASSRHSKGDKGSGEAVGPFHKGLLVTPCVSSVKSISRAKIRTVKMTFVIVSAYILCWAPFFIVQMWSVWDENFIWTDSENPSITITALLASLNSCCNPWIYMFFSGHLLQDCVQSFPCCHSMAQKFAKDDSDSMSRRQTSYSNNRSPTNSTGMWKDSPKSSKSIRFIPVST
T2 sequence (Q00788 whole entry): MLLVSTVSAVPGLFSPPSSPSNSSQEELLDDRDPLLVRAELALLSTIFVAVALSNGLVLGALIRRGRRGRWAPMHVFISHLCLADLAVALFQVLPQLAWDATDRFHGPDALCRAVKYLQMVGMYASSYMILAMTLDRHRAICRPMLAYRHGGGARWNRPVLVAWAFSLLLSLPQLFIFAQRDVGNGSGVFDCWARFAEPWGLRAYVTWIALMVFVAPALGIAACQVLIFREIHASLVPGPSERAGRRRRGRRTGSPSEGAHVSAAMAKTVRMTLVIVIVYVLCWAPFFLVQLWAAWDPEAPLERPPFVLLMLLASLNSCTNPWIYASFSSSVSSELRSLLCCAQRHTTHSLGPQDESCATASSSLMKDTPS

| IC50 [3, 8] [nM] | SMILES | inhibition at 0.1 µM [1] [%] | IC50 [2, 4] [nM] | IC50 [3, 5] [nM] | IC50 [1] [nM] | IC50 [2, 6] [nM] | IC50 [2, 7] [nM] |
| --- | --- | --- | --- | --- | --- | --- | --- |
|  | CC[C@H](C)[C@@H]1NC(=O)[C@@H](Cc2ccccc2)NC(=O)[C@@H]2CCCN2C(=O)[C@@H](CCCN)NC(=O)[C@@H]2CCCCN2C(=O)[C@H]2CCCCN2C1=O [Example 39, Cyclo[D-phenylalanyl-L-isoleucyl-D-pipecolyl-L-pipecolyl-D-ornithyl-L-prolyl]] (cyclo(I[dPip][Pip][dOrn]P[dF])) | 28 | > 10000 | > 1000 |  |  |  |
|  | CC[C@H](C)[C@@H]1NC(=O)[C@@H](Cc2c[nH]c3ccccc23)NC(=O)[C@@H]2CCCN2C(=O)[C@@H](Cc2ccccc2)N(C)C(=O)[C@H](CCCN)NC(=O)[C@H]2CCCCN2C1=O [Example 40, Cyclo[D-tryptophanyl-L-isoleucyl-D-pipecolyl-L-ornithyl-D-(N^α Methyl)phenylalanyl-L-prolyl]] (cyclo(I[dPip][Orn][dNMeF]P[dW])) | 59 | > 1000 | > 1000 |  |  |  |
|  | CC[C@H](C)[C@@H]1NC(=O)[C@@H](Cc2ccccc2)NC(=O)[C@@H]2CCCN2C(=O)[C@@H](Cc2ccc(O)cc2)N(C)C(=O)[C@@H]2CCCCN2C(=O)[C@H]2CCCCN2C1=O [Example 46, Cyclo[D-phenylalanyl-L-isoleucyl-D-pipecolyl-L-pipecolyl-D-(N^α Methyl)tyrosyl-L-prolyl]] (cyclo(I[dPip][Pip][dNMeY]P[dF])) | 60 | > 1000 | 10000 |  |  |  |
|  | CC[C@H](C)[C@@H]1NC(=O)[C@@H](Cc2ccccc2)NC(=O)[C@@H]2CCCN2C(=O)[C@@H](Cc2ccc([N+](=O)[O-])cc2)NC(=O)[C@@H]2CCCCN2C(=O)[C@H]2CCCCN2C1=O [Example 47, Cyclo[D-phenylalanyl-L-isoleucyl-D-pipecolyl-L-pipecolyl-D(p-nitro)phenylalanyl-L-prolyl]] (cyclo(I[dPip][Pip][dPhe(4-NO2)]P[dF])) |  |  | > 1000 | 620 | 10000 |  |
|  | CC[C@H](C)[C@@H]1NC(=O)[C@@H](Cc2ccccc2)NC(=O)[C@@H]2CCCN2C(=O)[C@@H](Cc2ccc(N)cc2)NC(=O)[C@@H]2CCCCN2C(=O)[C@H]2CCCCN2C1=O [Example 48, Cyclo[D-phenylalanyl-L-isoleucyl-D-pipecolyl-L-pipecolyl-D-(p-amino)phenylalanyl-L-prolyl]] (cyclo(I[dPip][Pip][dPhe(4-NH2)]P[dF])) |  |  | 10000 | 250 | > 10000 |  |
|  | CC[C@H](C)[C@@H]1NC(=O)[C@@H](Cc2ccccc2)NC(=O)[C@@H]2CCCN2C(=O)[C@@H](Cc2ccc(NC(=O)CN(C)C)cc2)NC(=O)[C@@H]2CCCCN2C(=O)[C@H]2CCCCN2C1=O [Example 49, Cyclo[D-phenylalanyl-L-isoleucyl-D-pipecolyl-L-pipecolyl-D-([N,N-dimethylglycyl]p-amino)phenylalanyl-L-prolyl]] (cyclo(I[dPip][Pip][dPhe(4-NH2)](Me2Gly)P[dF])) |  |  | 10000 | 320 | 10000 |  |
|  | CC[C@H](C)[C@@H]1NC(=O)[C@@H](Cc2ccccc2)NC(=O)[C@@H]2CCCN2C(=O)[C@@H](Cc2ccc(OCCN3CCOCC3)cc2)N(C)C(=O)[C@@H]2CCCCN2C(=O)[C@H]2CCCCN2C1=O [Example 50] (cyclo(I[dPip][Pip][dNMeY](Ethyl(2-morpholino))P[dF])) |  | > 1000 | > 10000 | 310 |  |  |
|  | O=C1N[C@@H](C2CCCCC2)C(=O)N2CCC[C@@H]2C(=O)N2CCC[C@H]2C(=O)N[C@H](Cc2ccccc2)C(=O)N2CCC[C@H]2C(=O)N[C@@H]1Cc1ccccc1 [Example 67, c-[D-Phenylalanyl-L-cyclohexylglycyl-D-prolyl-L-prolyl-D-phenylalanyl-L-prolyl]] (cyclo([dF]P[dF][Chg][dP]P)) |  |  | > 10000 | 10000 | > 10000 |  |
| 9300 | CC[C@H](C)[C@@H]1NC(=O)[C@@H](Cc2ccccc2)NC(=O)[C@@H]2CCCN2C(=O)[C@@H](Cc2ccccc2)NC(=O)[C@H]2CN(C(=O)OCc3ccccc3)CCN2C(=O)[C@H]2CCCCN2C1=O [Example 76, c-[D-Phenylalanyl-L-isoleucinyl-D-pipecolyl-D-piperazin-2-yl(4-Cbz)-D-phenylalanyl-L-prolyl]] (cyclo(I[dPip][dPip(4-aza,4-Cbz)][dF]P[dF])) |  |  |  | 460 |  | 10600 |
|  | CC[C@H](C)[C@@H]1NC(=O)[C@@H](Cc2ccccc2)NC(=O)[C@@H]2CCCN2C(=O)[C@@H](Cc2ccccc2)NC(=O)[C@@H]2CN(C(=O)OCc3ccccc3)CCN2C(=O)[C@H]2CCCCN2C1=O [Example 77, c-[D-Phenylalanyl-L-isoleucinyl-D-pipecolyl-L-piperazin-2-yl(4-Cbz)-D-phenylalanyl-L-prolyl]] (cyclo(I[dPip][X2][dF]P[dF])) |  |  | 10000 | 240 |  | 12300 |
| 7900 | CC[C@H](C)[C@@H]1NC(=O)[C@@H](Cc2ccccc2)NC(=O)[C@@H]2CCCN2C(=O)[C@@H](Cc2ccccc2)NC(=O)[C@H]2CNCCN2C(=O)[C@H]2CCCCN2C1=O [Example 78, c-[D-Phenylalanyl-L-isoleucinyl-D-pipecolyl-D-piperazin-2-yl-D-phenylalanyl-L-prolyl]] (cyclo(I[dPip][dPip(4-aza)][dF]P[dF])) |  |  |  | 300 | > 10000 |  |
|  | CC[C@H](C)[C@@H]1NC(=O)[C@@H](Cc2ccccc2)NC(=O)[C@@H]2CCCN2C(=O)[C@@H](Cc2ccccc2)NC(=O)[C@@H]2CN(C(=O)OCc3ccccc3)CCN2C(=O)[C@H]2CN(C(=O)OCc3ccccc3)CCN2C1=O [Example 79, c-[D-Phenylalanyl-L-isoleucinyl-D-piperazin-2-yl (4-Cbz)-L-piperazin-2-yl (4-Cbz)-D-phenylalanyl-L-prolyl]] (cyclo(I[dPip(4-aza,4-Cbz)][X2][dF]P[dF])) |  |  | > 10000 | 1700 | 10000 |  |
|  | CC[C@H](C)[C@@H]1NC(=O)[C@@H](Cc2ccccc2)NC(=O)[C@@H]2CCCN2C(=O)[C@@H](Cc2ccccc2)NC(=O)[C@@H]2CNCCN2C(=O)[C@H]2CNCCN2C1=O [Example 80, c-[D-Phenylalanyl-L-isoleucinyl-D-piperazin-2-yl-L-piperazin-2-yl-D-phenylalanyl-L-prolyl]] (cyclo(I[dPip(4-aza)][Pip(4-aza)][dF]P[dF])) |  |  | > 10000 | 10000 | > 10000 |  |
|  | CC[C@H](C)[C@@H]1NC(=O)[C@@H](Cc2ccccc2)NC(=O)[C@@H]2CCCN2C(=O)[C@@H](Cc2c[nH]cn2)NC(=O)[C@@H]2CN(C(=O)OCc3ccccc3)CCN2C(=O)[C@H]2CCCCN2C1=O [Example 81, c-[D-Phenylalanyl-L-isoleucinyl-D-pipecolyl-L-piperazin-2yl(4Cbz)-D-histidinyl-L-prolyl]] (cyclo(I[dPip][X2][dH]P[dF])) |  | > 1000 | > 1000 | 77 |  |  |
|  | CC[C@H](C)[C@@H]1NC(=O)[C@@H](Cc2ccccc2)NC(=O)[C@@H]2CCCN2C(=O)[C@@H](Cc2c[nH]cn2)NC(=O)[C@H]2CN(C(=O)OCc3ccccc3)CCN2C(=O)[C@H]2CCCCN2C1=O [Example 82, c-[D-Phenylalanyl-L-isoleucinyl-D-pipecolyl-D-piperazin-2-yl(4Cbz)-D-histidinyl-L-prolyl]] (cyclo(I[dPip][dPip(4-aza,4-Cbz)][dH]P[dF])) |  |  | 10000 | 73 | 10000 |  |
|  | CC[C@H](C)[C@@H]1NC(=O)[C@@H](Cc2ccccc2)NC(=O)[C@@H]2CCCN2C(=O)[C@@H](Cc2ccccc2)NC(=O)[C@@H]2CCCCN2C(=O)[C@H]2CN(C(=O)OCc3ccccc3)CCN2C1=O [Example 83, c-[D-Phenylalanyl-L-isoleucinyl-D-piperazin-2-yl-(4-Cbz)-L-pipecolyl-D-phenylalanyl-L-prolyl]] (cyclo(I[dPip(4-aza,4-Cbz)][Pip][dF]P[dF])) |  |  | 10000 | 940 | 10000 |  |
|  | CC[C@H](C)[C@@H]1NC(=O)[C@@H](Cc2ccccc2)NC(=O)[C@@H]2CCCN2C(=O)[C@@H](Cc2ccccc2)NC(=O)[C@@H]2CCCCN2C(=O)[C@H]2CNCCN2C1=O [Example 84, c-[D-Phenylalanyl-L-isoleucinyl-D-piperazin-2-yl-L-pipecolyl-D-phenyalanyl-L-prolyl]] (cyclo(I[dPip(4-aza)][Pip][dF]P[dF])) |  |  | 10000 | > 1000 | > 10000 |  |
